Measurements taken from patent US6548449B1, “Substituted phenyluracils with herbicidal effect” (Bayer Aktiengesellschaft, priority 1998, dated 2003).

What was measured:
[1] = tested on: weeds; test: Post-emergence test, activity against weeds; assay type: in vivo; conditions: test plants of a height of 5-15 cm sprayed, rated after three weeks vs untreated control
Description: (§1) Solvent: 5 parts by weight of acetone
(§2) Emulsifier: 1 part by weight of alkylaryl polyglycol ether
To produce a suitable preparation of active compound, 1 part by weight of active compound is mixed with the stated amount of solvent, the stated amount of emulsifiers is added and the concentrate is diluted with water to the desired concentration.
Test plants of a height of 5-15 cm are sprayed with the preparation of active compound such that the particular amounts of active compound are employed per unit area. The concentration of the spray liquor is chosen so that the particular amounts of active compound desired are applied in 1000 l of water/ha.
(§3) After three weeks, the degree of damage to the plants is rated in % damage in comparison to the development of the untreated control.
(§4) 0%=no effect (like untreated control)

[2] = tested on: weeds; test: Pre-emergence test, activity against weeds; assay type: in vivo; conditions: soil sprayed about 24 hours after sowing, rated after three weeks vs untreated control
Description: as §1, §2
(§5) To produce a suitable preparation of active compound, 1 part by weight of active compound is mixed with the stated amount of solvent, the stated amount of emulsifier is added and the concentrate is diluted with water to the desired concentration.
(§6) Seeds of the test plants are sown in normal soil. After about 24 hours, the soil is sprayed with the preparation of active compounds such that the particular amounts of active compound desired are applied per unit area. The concentration of the spray liquor is chosen so that the particular amounts of active compound desired are applied in 1000 l of water/ha.
as §3, §4

[3] = tested on: crop plants, such as, for example, barley and cotton; test: Pre-emergence test, tolerance by crop plants; assay type: in vivo; conditions: rated after three weeks
Description: as §1, §2, §5, §6, §3, §4

Row | SMILES | melting point | activity against weeds (degree of damage to the plants) [1] | activity against weeds (degree of damage to the plants) [2] | tolerance by crop plants [3]
1 | O=c1cc(C(F)(F)F)[nH]c(=O)n1-c1ccc(OCc2ccc(Cl)c([N+](=O)[O-])c2)cc1F [Example 1, 1-[2-fluoro-4-(4-chloro-3-nitro-benzyloxy)-phenyl]-4-trifluoromethyl-3,6-dihydro-2,6-dioxo-1(2H)-pyrimidine] | 165 °C | – | – | –
2 | Cn1c(C(F)(F)F)cc(=O)n(-c2ccc(OCc3ccc(Cl)c([N+](=O)[O-])c3)cc2F)c1=O [Example 2, 1-[2-fluoro-4-(4-chloro-3-nitro-benzyloxy)-phenyl]-3-methyl-4-trifluoromethyl-3,6-dihydro-2,6-dioxo-1 (2H)-pyrimidine] | 133 °C | very strong activity | – | –
3 | Nn1c(C(F)(F)F)cc(=O)n(-c2ccc(OCc3ccc(Cl)c([N+](=O)[O-])c3)cc2F)c1=O [Example 3, 3-amino-1-[2-fluoro-4-(4-chloro-3-nitro-benzyl-oxy)-phenyl]-4-trifluoromethyl-3,6-dihydro-2,6-dioxo-1(2H)-pyrimidine] | 185 °C | very strong activity | – | –
4 | Cn1c(C(F)(F)F)cc(=O)n(-c2ccc(OCc3ccc(Cl)c(N)c3)cc2F)c1=O [Example 4, 1-[2-fluoro-4-(3-amino-4-chloro-benzyloxy)-phenyl]-3-methyl-4-trifluoromethyl-3,6-dihydro-2,6-dioxo-1 (2H)-pyrimidine] | 148 °C | very strong activity | – | –
5 | CCS(=O)(=O)Nc1cc(COc2ccc(-n3c(=O)cc(C(F)(F)F)n(C)c3=O)c(F)c2)ccc1Cl [Example 5, 1-[2-fluoro-4-(4-chloro-3-ethylsulphonylamino-benzyloxy)-phenyl]-3-methyl-4-trifluoromethyl-3,6-dihydro-2,6-dioxo-1(2H)-pyrimidine] | 151 °C | very strong activity | very strong activity | tolerated well
